pEC50, pIC50: −log10 of the molar value. Calls of active or inactive are those of the source. The calls are words filed in the database; no cut-off is given here.
Key:
[1] = test system: Human immunodeficiency virus 1; experiment: Antiviral activity against HIV-1 3B infected in human MT4 cells assessed as protection against virus-induced cytopathic effect by MTT assay; assay type: functional, organism-based; details: Human immunodeficiency virus 1, 3B
[2] = in vitro; details: human, MT4 cells infected with HIV-1 3B
Description: Therapeutic index, ratio of CC50 for human MT4 cells infected with HIV-1 3B to EC50 for HIV-1 3B infected in human MT4 cells

[3] = target: Human immunodeficiency virus type 1 integrase (Human immunodeficiency virus 1, UniProt Q7ZJM1); experiment: Inhibition of HIV-1 overall integrase activity using 5'-digoxigenin-labeled GACCCTTTTAGTCAGTGTGGAAAATCTCTAGCAGT-3' as substrate after 1 hr by ELISA
[4] = Cytotoxicity against human MT4 cells infected with HIV-1 3B assessed as reduction in cell viability by MTT assay; assay type: cell-based
[5] = target: Human immunodeficiency virus type 1 reverse transcriptase (Human immunodeficiency virus 1) (UniProt Q72547); experiment: Inhibition of recombinant HIV-1 reverse transcriptase-associated RNase H activity using [3H]-labeled RNA as substrate at 10 uM after 10 mins relative to control
[6] = test system: Human immunodeficiency virus 1; experiment: Resistance ratio of EC50 for raltegravir-resistant HIV1 harboring integrase Q148H mutant to EC50 for wild type HIV1; assay type: functional
[7] = test system: Human immunodeficiency virus 1; experiment: Antiviral activity against HIV-1 3B infected in human MT4 cells assessed as inhibition of p24 antigen production at 50 to 100 times EC50 treated for 1 to 25 hrs measured at 30 hrs by ELISA; assay type: functional, organism-based
[8] = test system: Human immunodeficiency virus 1; experiment: Resistance ratio of EC50 for raltegravir-resistant HIV1 harboring integrase G140S/Q148H double mutant to EC50 for wild type HIV1; assay type: functional
[9] = n-octanol-PBS partition coefficient, log D of the compound at pH 7.4; assay type: physicochemical
[10] = test system: Human immunodeficiency virus 1; experiment: Resistance ratio of EC50 for raltegravir-resistant HIV1 harboring integrase N155H mutant to EC50 for wild type HIV1; assay type: functional
[11] = test system: Human immunodeficiency virus 1; experiment: Resistance ratio of EC50 for raltegravir-resistant HIV1 harboring integrase E92Q mutant to EC50 for wild type HIV1; assay type: functional
[12] = test system: Human immunodeficiency virus 1; experiment: Antiviral activity against HIV-1 3B infected in human MT4 cells assessed as inhibition of p24 antigen production by measuring time delay in loss of compound activity at 50 to 100 times EC50 by ELISA; assay type: functional
[13] = target: Human immunodeficiency virus type 1 reverse transcriptase (Human immunodeficiency virus 1, UniProt Q72547); experiment: Inhibition of recombinant HIV-1 reverse transcriptase-associated RNase H activity using [3H]-labeled RNA as substrate after 10 mins

Compound | pEC50 [1] | selectivity ratio [2] | pIC50 [3] | CC50 [4] [nM] | inhibition [5] [%] | also measured
O=C(Nc1ccccc1)c1c(O)n(O)c(=O)c2cc([N+](=O)[O-])ccc12 | 6.77 | 679 | 8.00 | 115000 | 60 | 
COc1ccc(CNC(=O)c2c(O)n(O)c(=O)c3cc([N+](=O)[O-])ccc23)cc1 | 5.53 | > 84 | 8.00 | > 250000 | 67.2 | 
O=C(Nc1ccc2c(c1)C(=O)N(O)C(=O)C2C(=O)NCc1ccc(F)cc1)c1ccccc1 (stereo not drawn) | < 4.68 |  | 7.10 | 21000 | 41.2 | 
COc1ccc2c(c1)C(=O)N(O)C(=O)C2C(=O)NCc1ccc(F)cc1 (stereo not drawn) | 5.19 | 3 | 6.59 | 21000 | 15.5 | 
O=C(NCc1ccccc1)c1c(O)n(O)c(=O)c2cc([N+](=O)[O-])ccc12 | 6.68 | 564 | 8.00 | 118000 | 69.1 | 
O=C(NCc1ccc(F)cc1)c1c(O)n(O)c(=O)c2ccccc12 |  |  |  |  |  | Ratio EC50 [6]: 1; inhibition [7]: Active; Ratio EC50 [8]: 1; logD [9]: 0.56; Ratio EC50 [10]: 1; Ratio EC50 [11]: 1
O=C(Nc1ccc2c(c1)C(=O)N(O)C(=O)C2C(=O)NCc1ccc(F)cc1)c1ccccn1 (stereo not drawn) | < 5.92 |  | 6.80 | 1000 |  | 
Cc1nnc(C(=O)NC(C)(C)c2nc(C(=O)NCc3ccc(F)cc3)c(O)c(=O)n2C)o1 |  |  |  | > 8000 |  | 
O=C(NCc1ccc(F)cc1)C1C(=O)N(O)C(=O)c2ccc(F)cc21 (stereo not drawn) | 5.50 | 39 | 6.62 | 123000 | 24.5 | 
O=C(NCc1ccc(F)cc1)c1c(O)n(O)c(=O)c2ccc([N+](=O)[O-])cc12 | 6.57 | > 463 | 7.52 | > 125000 | 48.2 | 
O=C(Nc1ccc(F)cc1)c1c(O)n(O)c(=O)c2cc([N+](=O)[O-])ccc12 | 6.72 | 981 | 7.52 | 186000 |  | 
O=C(NCc1ccc(F)cc1)C1C(=O)N(O)C(=O)c2cc(Br)ccc21 (stereo not drawn) | 5.52 | 33 | 7.22 | 99500 | 38.7 | 
O=C(Cc1ccccc1)Nc1ccc2c(c1)C(=O)N(O)C(=O)C2C(=O)NCc1ccc(F)cc1 (stereo not drawn) | < 4.51 |  | 6.64 | 31000 | 46.4 | 
O=C(NCc1ccc(F)cc1)C1C(=O)N(O)C(=O)c2cc(C(F)(F)F)ccc21 (stereo not drawn) | 6.22 | > 94 | 7.70 | > 56000 | 25.5 | 
N#Cc1ccc2c(C(=O)NCc3ccc(F)cc3)c(O)n(O)c(=O)c2c1 | 6.17 | > 187 | 7.15 | > 125000 |  | 
O=C(Cc1cccs1)Nc1ccc2c(c1)C(=O)N(O)C(=O)C2C(=O)NCc1ccc(F)cc1 (stereo not drawn) | < 4.39 |  | 7.22 | 41000 | 28.9 | 
O=C(NCCc1ccc(F)cc1)c1c(O)n(O)c(=O)c2cc([N+](=O)[O-])ccc12 | 6.02 | > 262 | 7.22 | > 250000 |  | 
O=C(NCc1ccc(F)cc1)C1C(=O)N(O)C(=O)c2cc(Cl)ccc21 (stereo not drawn) | 5.38 |  | 6.85 | 106000 | 26.3 | 
CC(=O)Nc1ccc2c(c1)C(=O)N(O)C(=O)C2C(=O)NCc1ccc(F)cc1 (stereo not drawn) | 4.53 | 5 | 7.00 | 149000 | 25.2 | 
O=C(NCc1ccc(F)cc1)C1C(=O)N(O)C(=O)c2c(F)cccc21 (stereo not drawn) | 5.35 | 33 | 6.06 | 149000 | 31.6 | 
CC(C)c1nc(CN(C)C(=O)N[C@H](C(=O)N[C@@H](Cc2ccccc2)C[C@H](O)[C@H](Cc2ccccc2)NC(=O)OCc2cncs2)C(C)C)cs1 [RITONAVIR] |  |  |  |  |  | Time [12]: 25 h
Cc1cn([C@H]2C[C@H](N=[N+]=[N-])[C@@H](CO)O2)c(=O)[nH]c1=O [ZIDOVUDINE] |  |  |  |  |  | Time [12]: 4 h
O=C(NCc1ccc(F)cc1)C1C(=O)N(O)C(=O)c2cc(F)ccc21 (stereo not drawn) | 6.14 | 162 | 6.62 | 116000 | 21.9 | 
O=C(NCc1ccc(F)cc1)c1c(O)n(O)c(=O)c2cc([N+](=O)[O-])ccc12 |  |  | 8.00 |  | 78.7 | pIC50 [13]: 5.32
Nc1ccc2c(c1)C(=O)N(O)C(=O)C2C(=O)NCc1ccc(F)cc1 (stereo not drawn) | 4.63 | 10 | 6.96 | 253000 | 29.4 | 
CCCCCCNC(=O)c1c(O)n(O)c(=O)c2cc([N+](=O)[O-])ccc12 | 5.38 | > 59 | 7.22 | > 250000 | 49 | 
